“Also recorded” adds a separate entry of the source.
What was measured:
[1] = system: human platelet rich plasma; experiment: Agonist-induced platelet aggregation in normal and aspirinized PRP, PAP 8E platelet aggregometer (Example 1); assay type: cell-based; settings: for ability to detect the drug in the presence of aspirin: aspirinized PRP, synthetic collagen 8-64 ng/mL; for effect on biological collagen-induced aggregation: Bio/Data and Chrono Log biological collagen; for effect on Bio/Data collagen-induced aggregation: Bio/Data collagen 190 μg/mL; for effect on arachidonic acid-induced aggregation: arachidonic acid 500 μg/mL; for antiplatelet effect in synthetic collagen-induced aggregation at lower concentrations: synthetic collagen 32 ng/mL and lower (32, 16, 8 ng/mL); for effect on 64 ng/mL synthetic collagen-induced aggregation: synthetic collagen 64 ng/mL
Protocol: ADP was obtained from Bio/Data Corporation, Horsham, Pa. Each vial was reconstituted with 1 mL of deionized water to make a 100 μM working solution. The final concentration of ADP in the aggregation cuvette was 10 μM.
Arachidonic acid was obtained from Bio/Data Corporation, Horsham, Pa. Each vial was reconstituted with 0.5 mL deionized water to make a 5 mg/mL working solution. The final concentration of arachidonic acid in the aggregation cuvette was 500 μg/mL.
Biological Collagen was obtained from Bio/Data Corporation, Horsham, Pa. Each vial was reconstituted with 0.5 mL deionized water to make a 1.9 mg/mL working solution. The final concentration of Bio/Data collagen in the aggregation cuvette was 190 μg/mL.
Biological Collagen was obtained from Chrono Log Corporation, Havertown, Pa. as a 1 mg/mL solution. A working solution of 100 μg/mL was made by dilution with physiologic saline. The final concentration of Chrono Log collagen in the aggregation cuvette was 10 μg/mL.
Synthetic collagen was provided by JNC Corporation, Yokohama, Japan at working concentrations of 80, 160, 320 and 640 ng/mL. The final concentrations of synthetic collagen in the aggregation cuvette were 64, 32, 16 and 8 ng/mL.
Approval for the collection of whole blood from healthy human volunteers was granted from the Institutional Review Board of the Health Sciences Division of Loyola University Chicago. Whole blood was drawn using a double syringe technique from the antecubital vein and anticoagulated by the addition of 1 part 3.2% sodium citrate to (9 parts blood to 1 part citrate). Citrated blood was centrifuged at 80×g at room temperature for 15 minutes to make platelet rich plasma (PRP). Supernatant PRP was collected and kept at room temperature in capped tubes. The remaining citrated blood was recentrifuged at 1,100×g for 15 minutes to make platelet poor plasma (PPP). The platelet count of the PRP was determined using an ICHOR II Analyzer, Helena Laboratories, Beaumont, Tex. Platelet count in the PRP was adjusted to 250,000-300,000/μl by the addition of homologous PPP.
Six blood donors were used for this study. Each was drawn on separate days for the ‘non-aspirinized’ and ‘aspirinized’ portions of the protocol. For the ‘non-aspirinized’ portion of the protocol, one donor ([…]) was excluded from the final analysis as the aggregation responses were markedly different from that of the other 5 donors.
Platelet aggregation was measured using a PAP 8E platelet aggregometer (Bio/Data). Each well was blanked using PPP. 25 μl of saline or antiplatelet drug and 200 μl of PRP were added to cuvettes containing magnetic stir bars and incubated for three minutes to equilibrate the sample to 37° C. 25 μl of agonist was added to each cuvette and the aggregation profile was monitored until a plateau was achieved. Results were tabulated in terms of maximal aggregation level. Under some reaction conditions, reversible aggregation was observed. This was most commonly observed with ADP and arachidonic acid-induced aggregation in the presence of ticagrelor or cilostazol. Final aggregation levels were also tabulated.

[2] = system: PRP samples of healthy donors; experiment: LTAAs using synthetic collagen with anti-platelet medication added to the PRP sample (Example 2); assay type: cell-based; settings: synthetic collagen 12.5, 25, 50, 100 ng/mL
Protocol: Two healthy donors supplied the PRP samples. A panel of four different synthetic collagen concentrations were tested (12.5 ng/mL, 25 ng/mL, 50 ng/mL and 100 ng/mL Abciximab was added to the each of the four panels of different synthetic collagen concentrations. In one panel, saline was added as the control to each of the four synthetic collagen concentrations. In the second panel, 12.5 μg/mL (micrograms/mL) of abciximab was added to each of the four synthetic collagen concentrations. In a third panel, 25 μg/mL of abciximab was added to each of the four synthetic collagen concentrations. In a fourth panel, 50 μg/mL of abciximab was added to each of the four synthetic collagen concentrations. LTAAs were run for each and the PA, PS, SA, SS AUC, LP, DA, MA and FA was measured for each. The tests were run on each of the donors' samples.
Two healthy donors supplied the PRP samples. […] LTAAs were run for each and the PA, PS, SA, SS AUC, LP, DA, MA and FA was measured for each. […]

platelet aggregation = settings: Aspirin doses greater than 100 mg; cited from earlier work
[3] = non-aspirinized plasma, ADP 10 μM
[4] = non-aspirinized plasma, Chrono Log collagen 10 μg/mL

Molecule: CC(=O)Oc1ccccc1C(=O)O [aspirin, 2-acetyloxybenzoic acid]
- effect of aspirin on ADP-induced aggregation ([1]; 10 μM ADP): minimally affected
- effect of aspirin on Chrono Log collagen-induced aggregation ([1]; 10 μg/mL Chrono Log collagen): did not inhibit; also recorded: not inhibited
- effect of aspirin on Bio/Data collagen-induced aggregation ([1]; 0.19 mg/mL Bio/Data collagen): minimally affected; also recorded: not inhibited
- effect of aspirin on synthetic collagen-induced aggregation ([1]; all synthetic collagen concentrations tested (8-64 ng/mL)): lower levels of aggregation; also recorded: higher sensitivity to aspirin
- arachidonic acid-induced aggregation in aspirinized plasma ([1]; aspirin taken orally <48 hours before draw or 100 μM in vitro, no other drug): < 20%
- response to arachidonic acid in aspirinized plasma ([1]; aspirin taken orally or 100 μM in vitro): nearly completely blunted

Molecule: O=C1CCc2cc(OCCCCc3nnnn3C3CCCCC3)ccc2N1 [cilostazol]
- ability to detect the drug in the presence of aspirin [1]: negated the ability to detect cilostazol; also recorded: affected the ability
- effect on ADP-induced aggregation [1, 3]: minimally affected; also recorded: weaker, concentration-dependent inhibition
- effect on biological collagen-induced aggregation ([1]; non-aspirinized plasma): unaffected
- effect on Bio/Data collagen-induced aggregation ([1]; non-aspirinized plasma): did not inhibit
- effect on Chrono Log collagen-induced aggregation [1, 4]: did not inhibit
- effect on arachidonic acid-induced aggregation ([1]; non-aspirinized plasma): strongly inhibited
- antiplatelet effect in synthetic collagen-induced aggregation at lower concentrations ([1]; non-aspirinized plasma): could be observed; also recorded: readily apparent
- effect on 64 ng/mL synthetic collagen-induced aggregation ([1]; non-aspirinized plasma): did not inhibit; also recorded: minimal effect

Molecule: CCCSc1nc(N[C@@H]2C[C@H]2c2ccc(F)c(F)c2)c2nnn([C@@H]3C[C@H](OCCO)[C@@H](O)[C@H]3O)c2n1 [ticagrelor, (1S,2S,3R,5S)-3-[7-[[(1R,2S)-2-(3,4-difluorophenyl)cyclopropyl]amino]-5-propylsulfanyltriazolo[4,5-d]pyrimidin-3-yl]-5-(2-hydroxyethoxy)cyclopentane-1,2-diol]
- ability to detect the drug in the presence of aspirin [1]: affected the ability; also recorded: can be detected
- anti-platelet effect in 8 ng/mL synthetic collagen-induced aggregation ([1]; aspirinized plasma): no longer observed
- anti-platelet effect in 16 and 32 ng/mL synthetic collagen-induced aggregation ([1]; aspirinized plasma): reduced
- anti-platelet effect in arachidonic acid-induced aggregation ([1]; aspirinized plasma): no longer observed
- effect of adding aspirin on the drug's ADP-induced aggregation response ([1]; aspirinized plasma, ADP 10 μM): did not affect
- effect on ADP-induced aggregation [1, 3]: strongly inhibited; also recorded: inhibited
- effect on biological collagen-induced aggregation ([1]; non-aspirinized plasma): little effect
- effect on Bio/Data collagen-induced aggregation ([1]; non-aspirinized plasma): Neither Bio/Data collagen, Chrono Log collagen nor 64 ng/mL synthetic collagen was markedly impacted
- effect on Chrono Log collagen-induced aggregation [1, 4]: Neither Bio/Data collagen, Chrono Log collagen nor 64 ng/mL synthetic collagen was markedly impacted
- effect on arachidonic acid-induced aggregation ([1]; non-aspirinized plasma): inhibited to a similar extent
- antiplatelet effect in synthetic collagen-induced aggregation at lower concentrations ([1]; non-aspirinized plasma): could be identified; also recorded: readily apparent
- effect on 64 ng/mL synthetic collagen-induced aggregation ([1]; non-aspirinized plasma): Neither Bio/Data collagen, Chrono Log collagen nor 64 ng/mL synthetic collagen was markedly impacted; also recorded: minimal effect
- detection of the drug by synthetic collagen LTAA [2]: the assays worked with both
- effect of aspirin dose on ticagrelor's inhibition of platelet aggregation (platelet aggregation): reduce the ability of ticagrelor to inhibit platelet aggregation

B1: abciximab: Immunoglobulin Fragment Fab Fragment Chimeric monoclonal antibody 7E3 (GP IIbIIIa receptor blocker) (antibody, chains of the INN, looked up, V domains shown)
VH: EVQLQQSGTVLARPGASVKMSCEASGYTFTNYWMHWVKQRPGQGLEWIGAIYPGNSDTSYIQKFKGKAKLTAVTSTTSVYMELSSLTNEDSAVYYCTLYDGYYVFAYWGQGTLVTVSA
VL: EIVLTQSPVTLSVTPGDSVSLSCRASRDISNNLHWFQQTSHESPRLLIKYASQSMSGIPSRFSGSGSGTDFTLSINSVETEDFGMYFCQQTNSWPYTFGGGTKLEIK
modifications: Fab
- inhibition of Chrono Log collagen-induced aggregation ([1]; aspirinized PRP compared with non-aspirinized, Chrono Log collagen 10 μg/mL): stronger inhibition
- ability to detect the drug in the presence of aspirin [1]: readily detectable
- anti-platelet effect in arachidonic acid-induced aggregation ([1]; aspirinized plasma): complete inhibition
- concentration at which inhibition of Bio/Data collagen-induced aggregation was observed ([1]; non-aspirinized plasma): 5 µg/mL
- concentration at which inhibition of Chrono Log collagen-induced aggregation was observed ([1]; non-aspirinized plasma): 5 μg/mL
- effect on ADP-induced aggregation [1, 3]: inhibited
- effect on biological collagen-induced aggregation ([1]; non-aspirinized plasma): inhibited
- effect on arachidonic acid-induced aggregation ([1]; non-aspirinized plasma): most sensitive; also recorded: inhibited
- inhibition of agonist-induced aggregation ([1]; non-aspirinized plasma, concentration range tested 1.25-5 μg/mL): concentration-dependent inhibition
- antiplatelet effect in synthetic collagen-induced aggregation at lower concentrations ([1]; non-aspirinized plasma): most sensitive; also recorded: readily apparent
- effect on 64 ng/mL synthetic collagen-induced aggregation ([1]; non-aspirinized plasma): inhibited by abciximab to a comparable degree
- detection of the drug by synthetic collagen LTAA [2]: the assays worked with both

From US20190004070A9 (JNC CORPORATION, priority 2012, published 2019)
